According to US8394852B2, “Inotilone derivatives as coherent biological response modifier (cBMR)” (Sami Labs Ltd, priority 2009, dated 2013):

Assays:
[1] = test system: COX-2; experiment: LPS-induced COX-2 protein expression by Western blotting in RAW 264.7 cells; type: cell-based, murine; conditions: E coli LPS 100 ng/mL, co-treatment
Experimental: (§1) RAW 264.7 cells, derived from murine macrophage (American Type Culture Collection, MD, USA) were cultured in DMEM supplemented with 10% endotoxin-free, heat-inactivated fetal calf serum, 100 units/mL penicillin and 100 mcg/mL streptomycin, the culture media was changed to serum-free DMEM without phenol red on reaching cell density 2-3×10^6 cells/mL, and the cells activated by incubation in medium containing E coli LPS (100 ng/mL). Test compounds dissolved in dimethylsulfoxide were added together with the LPS. Cells treated with 0.05% DMSO acted as vehicle control.
(§2) The effects of test compounds on LPS-induced iNOS (inducible nitric oxide synthase) and COX-2 protein expressions were studied by Western blotting.

[2] = test system: PI3K/Akt and extracellular signal-regulated kinase 1/2 and p38 mitogen-activated protein kinase; conditions: cited from earlier work
[3] = test system: iNOS; conditions: cited from earlier work
[4] = test system: COX-2; conditions: through decreasing the enzyme activity of COX-2; cited from earlier work
[5] = test system: nuclear factor-kappaB (NFkappaB); conditions: cited from earlier work
[6] = test system: iNOS (inducible nitric oxide synthase); experiment: LPS-induced iNOS protein expression by Western blotting in RAW 264.7 cells; type: cell-based, murine; conditions: E coli LPS 100 ng/mL, co-treatment
Experimental: as §1, §2

| SMILES | effect on LPS-induced COX-2 protein expression [1] | LPS-induced activation of PI3K/Akt, ERK 1/2 and p38 MAPK [2] | protein and mRNA expression of iNOS [3] | prostaglandin E(2) production [4] | LPS-induced nuclear translocation of NFkappaB subunit and NFkappaB-dependent transcriptional activity [5] | effect on LPS-induced iNOS protein expression [6] |
| --- | --- | --- | --- | --- | --- | --- |
| CC1=CC(=O)/C(=C/c2ccc(O)c(O)c2)O1 [4a, Inotilone] | but not of COX-2 | inhibited LPS-induced activation of PI3K/Akt and extracellular signal-regulated kinase 1/2 and p38 mitogen-activated protein kinase | blocked protein and mRNA expression of iNOS | inhibited prostaglandin E(2) production | reduction of LPS-induced nuclear translocation of NFkappaB subunit and the NFkappaB-dependent transcriptional activity | suppressed the induction of iNOS |
| COc1cc(/C=C2\OC(C)=CC2=O)ccc1O [4b, 2-(4-Hydroxy-3-methoxy-benzylidene)-5-methyl-furan-3-one] | slightly stimulated LPS-induced COX-2 expression | – | – | – | – | no effect on LPS induced iNOS protein expression |
